Laboratory results published in ChEMBL document CHEMBL3044921, “Synthesis, characterization, and SAR studies of new (1H-indol-3-yl)alkyl-3-(1H-indol-3-yl)propanamide derivatives as possible antimicrobial and antitubercular agents” (2013).
Converted amounts (≈) assume the structure as drawn.

Key:
[1] = tested on: Escherichia coli; test: Antibacterial activity against Escherichia coli […] assessed as growth inhibition after 16 to 18 hr by serial plate dilution method; format: functional
[2] = tested on: Streptococcus pyogenes; format: functional
Description: Antibacterial activity against Streptococcus pyogenes assessed as growth inhibition at 1.56 to 25 ug/ml after 3 to 4 days by agar well diffusion method

[3] = tested on: Aspergillus fumigatus; test: Antifungal activity against Aspergillus fumigatus NCIM 902 assessed as growth inhibition after 3 to 4 days by serial plate dilution method; format: functional
[4] = tested on: Candida albicans; test: Antifungal activity against Candida albicans assessed as growth inhibition after 3 to 4 days by serial plate dilution method; format: functional
[5] = tested on: Trichophyton mentagrophytes; test: Antifungal activity against Trichophyton mentagrophytes assessed as growth inhibition at […] to […] ug/ml after 3 to 4 days by agar well diffusion method; format: functional
[6] = tested on: Klebsiella pneumoniae; test: Antibacterial activity against Klebsiella pneumoniae assessed as growth inhibition after 16 to 18 hr by serial plate dilution method; format: functional
[7] = tested on: Pseudomonas aeruginosa; test: Antibacterial activity against Pseudomonas aeruginosa ATCC 27853 assessed as growth inhibition after 16 to 18 hr by serial plate dilution method; format: functional
[8] = tested on: Klebsiella pneumoniae; format: functional
Description: Antibacterial activity against Klebsiella pneumoniae assessed as growth inhibition at 1.56 to 25 ug/ml after 3 to 4 days by agar well diffusion method

[9] = tested on: Trichophyton mentagrophytes; test: Antifungal activity against Trichophyton mentagrophytes assessed as growth inhibition after 3 to 4 days by serial plate dilution method; format: functional
[10] = tested on: Talaromyces marneffei; test: Antifungal activity against Talaromyces marneffei assessed as growth inhibition after 3 to 4 days by serial plate dilution method; format: functional
[11] = tested on: Aspergillus flavus; test: Antifungal activity against Aspergillus flavus NCIM 524 assessed as growth inhibition after 3 to 4 days by serial plate dilution method; format: functional
[12] = tested on: Mycolicibacterium fortuitum; test: Antitubercular activity against Mycobacterium fortuitum ATCC 19542 assessed as growth inhibition at 1 to 100 ug/mL after 7 days by resazurin reduction test; format: functional; details: ATCC 19542, 168 h
[13] = tested on: Staphylococcus aureus; test: Antibacterial activity against Staphylococcus aureus ATCC 25923 assessed as growth inhibition after 16 to 18 hr by serial plate dilution method; format: functional
[14] = tested on: Aspergillus fumigatus; test: Antifungal activity against Aspergillus fumigatus NCIM 902 assessed as growth inhibition at […] to […] ug/ml after 3 to 4 days by agar well diffusion method; format: functional
[15] = tested on: Mycolicibacterium smegmatis; test: Antitubercular activity against Mycobacterium smegmatis ATCC 19420 assessed as growth inhibition at 1 to 100 ug/mL after 7 days by resazurin reduction test; format: functional; details: ATCC 19420, 168 h
[16] = tested on: Candida albicans; test: Antifungal activity against Candida albicans assessed as growth inhibition at […] to […] ug/ml after 3 to 4 days by agar well diffusion method; format: functional
[17] = tested on: Mycobacterium tuberculosis; test: Antitubercular activity against Mycobacterium tuberculosis H37Rv ATCC 27294 assessed as growth inhibition at 1 to 100 ug/mL after 7 days by resazurin reduction test; format: functional; details: for MIC: Mycobacterium tuberculosis, H37Rv ATCC 27294, 168 h
[18] = tested on: Aspergillus flavus; test: Antifungal activity against Aspergillus flavus NCIM 524 assessed as growth inhibition at […] to […] ug/ml after 3 to 4 days by agar well diffusion method; format: functional
[19] = tested on: Pseudomonas aeruginosa; format: functional, ATCC 27853
Description: Antibacterial activity against Pseudomonas aeruginosa ATCC 27853 assessed as growth inhibition at 1.56 to 25 ug/ml after 3 to 4 days by agar well diffusion method

[20] = tested on: Streptococcus pyogenes; test: Antibacterial activity against Streptococcus pyogenes assessed as growth inhibition after 16 to 18 hr by serial plate dilution method; format: functional
[21] = tested on: Talaromyces marneffei; test: Antifungal activity against Talaromyces marneffei assessed as growth inhibition at […] to […] ug/ml after 3 to 4 days by agar well diffusion method; format: functional
[22] = tested on: Escherichia coli; format: functional, ATCC 24922
Description: Antibacterial activity against Escherichia coli ATCC 24922 assessed as growth inhibition at 1.56 to 25 ug/ml after 3 to 4 days by agar well diffusion method

[23] = tested on: Staphylococcus aureus; format: functional, ATCC 25923
Description: Antibacterial activity against Staphylococcus aureus ATCC 25923 assessed as growth inhibition at 1.56 to 25 ug/ml after 3 to 4 days by agar well diffusion method

[24] = tested on: Mycobacterium tuberculosis; test: Antitubercular activity against Mycobacterium tuberculosis H37Rv ATCC 27294 assessed as growth inhibition at 0.3125 to 5 ug/mL after 7 days by resazurin reduction test; format: functional; details: H37Rv ATCC 27294, 168 h

SMILES | MIC [1] [µg/mL] | diameter of the inhibition zone (DIZ) [2] [mm] | MIC [3] [µg/mL] | MIC [4] [µg/mL] | diameter of the inhibition zone (DIZ) [5] [mm] | MIC [6] [µg/mL] | MIC [7] [µg/mL] | diameter of the inhibition zone (DIZ) [8] [mm] | MIC [9] [µg/mL] | MIC [10] [µg/mL] | MIC [11] [µg/mL] | MIC [12] [µg/mL] | MIC [13] [µg/mL] | diameter of the inhibition zone (DIZ) [14] [mm] | diameter of the inhibition zone (DIZ) [16] [mm] | diameter of the inhibition zone (DIZ) [18] [mm] | diameter of the inhibition zone (DIZ) [19] [mm] | MIC [20] [µg/mL] | diameter of the inhibition zone (DIZ) [21] [mm] | diameter of the inhibition zone (DIZ) [23] [mm] | further results
O=C(CCc1c[nH]c2ccc(Cl)cc12)NCCCc1c[nH]c2ccc(Cl)cc12 | 25 (≈ 60.3 µM) | 16 | 6.25 (≈ 15.1 µM) | 6.25 (≈ 15.1 µM) | 16 | 25 (≈ 60.3 µM) | 25 (≈ 60.3 µM) | <10 | 6.25 (≈ 15.1 µM) | 6.25 (≈ 15.1 µM) | 6.25 (≈ 15.1 µM) | > 100 | 25 (≈ 60.3 µM) | 16 | 16 | 16 | <10 | 6.25 (≈ 15.1 µM) | 16 | <10 | MIC [15]: > 100 µg/mL; growth inhibition (GI) [17]: 0%; MIC [17]: > 100 µg/mL; diameter of the inhibition zone (DIZ) [22]: <10 mm
O=C(CCc1c[nH]c2ccc(Cl)cc12)NCCCc1c[nH]c2ccc(OC(F)(F)F)cc12 | 6.25 (≈ 13.5 µM) | 11 | 25 (≈ 53.9 µM) | 25 (≈ 53.9 µM) | <10 | 6.25 (≈ 13.5 µM) | 6.25 (≈ 13.5 µM) | 16 | 25 (≈ 53.9 µM) | 25 (≈ 53.9 µM) | 25 (≈ 53.9 µM) | > 100 | 6.25 (≈ 13.5 µM) | <10 | <10 | <10 | 16 | 12.5 (≈ 26.9 µM) | <10 | 16 | MIC [15]: > 100 µg/mL; growth inhibition (GI) [17]: 0%; MIC [17]: > 100 µg/mL; diameter of the inhibition zone (DIZ) [22]: 16 mm
Cc1c(CCCNC(=O)CCc2cn(C)c3ccc(Cl)cc23)c2cc(OC(F)(F)F)ccc2n1C | 12.5 (≈ 24.7 µM) | <10 | 12.5 (≈ 24.7 µM) | 25 (≈ 49.4 µM) | 11 | 12.5 (≈ 24.7 µM) | 25 (≈ 49.4 µM) | 11 | 12.5 (≈ 24.7 µM) | 6.25 (≈ 12.4 µM) | 6.25 (≈ 12.4 µM) | > 100 | 12.5 (≈ 24.7 µM) | 11 | <10 | 16 | <10 | 25 (≈ 49.4 µM) | 16 | 11 | MIC [15]: > 100 µg/mL; growth inhibition (GI) [17]: <90%; MIC [17]: 10 µg/mL (≈ 19.8 µM); diameter of the inhibition zone (DIZ) [22]: 11 mm; MIC [24]: 1.25 µg/mL (≈ 2.47 µM)
Cn1cc(CCCNC(=O)CCc2c[nH]c3ccc(Cl)cc23)c2cc(Cl)ccc21 | 12.5 (≈ 29.2 µM) | <10 | 6.25 (≈ 14.6 µM) | 25 (≈ 58.4 µM) | 16 | 12.5 (≈ 29.2 µM) | 12.5 (≈ 29.2 µM) | 11 | 6.25 (≈ 14.6 µM) | 25 (≈ 58.4 µM) | 25 (≈ 58.4 µM) | > 100 | 25 (≈ 58.4 µM) | 16 | <10 | <10 | 11 | 25 (≈ 58.4 µM) | <10 | <10 | MIC [15]: > 100 µg/mL; growth inhibition (GI) [17]: 0%; MIC [17]: > 100 µg/mL; diameter of the inhibition zone (DIZ) [22]: 11 mm
Cc1c(CNC(=O)CCc2c[nH]c3ccc(Cl)cc23)c2cc(OC(F)(F)F)ccc2n1C | 12.5 (≈ 26.9 µM) | <10 | 12.5 (≈ 26.9 µM) | 6.25 (≈ 13.5 µM) | 11 | 25 (≈ 53.9 µM) | 6.25 (≈ 13.5 µM) | <10 | 12.5 (≈ 26.9 µM) | 12.5 (≈ 26.9 µM) | 12.5 (≈ 26.9 µM) | > 100 | 6.25 (≈ 13.5 µM) | 11 | 16 | 11 | 16 | 25 (≈ 53.9 µM) | 11 | 16 | MIC [15]: 10 µg/mL (≈ 21.6 µM); growth inhibition (GI) [17]: <90%; MIC [17]: > 100 µg/mL; diameter of the inhibition zone (DIZ) [22]: 11 mm; MIC [24]: 5 µg/mL (≈ 10.8 µM)
Cc1c(CNC(=O)CCc2cn(C)c3ccc(Cl)cc23)c2cc(OC(F)(F)F)ccc2n1C | 12.5 (≈ 26.2 µM) | <10 | 6.25 (≈ 13.1 µM) | 12.5 (≈ 26.2 µM) | 16 | 12.5 (≈ 26.2 µM) | 25 (≈ 52.3 µM) | 11 | 6.25 (≈ 13.1 µM) | 25 (≈ 52.3 µM) | 25 (≈ 52.3 µM) | > 100 | 12.5 (≈ 26.2 µM) | 16 | 11 | <10 | <10 | 25 (≈ 52.3 µM) | <10 | 11 | MIC [15]: 10 µg/mL (≈ 20.9 µM); growth inhibition (GI) [17]: <90%; MIC [17]: > 100 µg/mL; diameter of the inhibition zone (DIZ) [22]: 11 mm; MIC [24]: 5 µg/mL (≈ 10.5 µM)
Cc1cc(C2CCCCC2)n(O)c(=O)c1.NCCO [CICLOPIROX OLAMINE] |  |  | 6.25 | 6.25 | 27 |  |  |  | 6.25 | 6.25 | 6.25 |  |  | 25 | 20 | 25 |  |  | 20 |  | 
O=C(O)c1cn(C2CC2)c2cc(N3CCNCC3)c(F)cc2c1=O [CIPROFLOXACIN] |  | 23 |  |  |  | 1.56 (≈ 4.71 µM) |  | 21 |  |  |  |  |  |  |  |  | 16 | 6.25 (≈ 18.9 µM) |  | 30 | 
